Laboratory results: the kinase profiling compilation of Christmann-Franck et al. (2016)

Each molecule was assayed against RPS6KB2 (human) (UniProt Q9UBS0) (assay: radiometric filter-binding kinase assay, Kinase HotSpot). Conditions: compound 0.5 µM; ATP 10 µM.
Sequence of RPS6KB2 (human) (Q9UBS0 whole entry, looked up): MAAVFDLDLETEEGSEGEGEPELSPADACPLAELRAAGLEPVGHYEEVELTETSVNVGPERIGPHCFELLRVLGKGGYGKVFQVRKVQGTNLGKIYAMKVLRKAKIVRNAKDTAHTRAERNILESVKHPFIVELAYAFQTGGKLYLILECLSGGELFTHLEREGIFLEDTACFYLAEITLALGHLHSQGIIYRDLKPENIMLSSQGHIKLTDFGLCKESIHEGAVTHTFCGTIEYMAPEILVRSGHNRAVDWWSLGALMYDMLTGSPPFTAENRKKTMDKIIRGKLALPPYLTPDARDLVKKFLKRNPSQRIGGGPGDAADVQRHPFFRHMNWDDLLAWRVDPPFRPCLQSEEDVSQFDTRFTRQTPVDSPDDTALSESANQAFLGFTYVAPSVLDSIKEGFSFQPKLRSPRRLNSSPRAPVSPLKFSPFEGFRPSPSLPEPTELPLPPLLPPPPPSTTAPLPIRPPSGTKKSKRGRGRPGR

SMILES	residual activity [%]
Nc1nc(Nc2ccc(S(N)(=O)=O)cc2)nn1C(=S)Nc1c(F)cccc1F	96.2
Oc1ccc(-c2nc(-c3ccc(F)cc3)c(-c3ccncc3)[nH]2)cc1	91.4
CC(C)[C@H](CO)Nc1nc(Nc2cccc(Cl)c2)c2ncn(C(C)C)c2n1	101
COc1cc2ncnc(Nc3ccc(F)c(Cl)c3)c2cc1OCCCN1CCOCC1	101

The molecules below were run against MLTK (human) (UniProt Q9NYL2) in the same assay as above. Conditions: compound 0.5 µM; ATP 10 µM.
Sequence of MLTK (human) (Q9NYL2 whole entry, looked up): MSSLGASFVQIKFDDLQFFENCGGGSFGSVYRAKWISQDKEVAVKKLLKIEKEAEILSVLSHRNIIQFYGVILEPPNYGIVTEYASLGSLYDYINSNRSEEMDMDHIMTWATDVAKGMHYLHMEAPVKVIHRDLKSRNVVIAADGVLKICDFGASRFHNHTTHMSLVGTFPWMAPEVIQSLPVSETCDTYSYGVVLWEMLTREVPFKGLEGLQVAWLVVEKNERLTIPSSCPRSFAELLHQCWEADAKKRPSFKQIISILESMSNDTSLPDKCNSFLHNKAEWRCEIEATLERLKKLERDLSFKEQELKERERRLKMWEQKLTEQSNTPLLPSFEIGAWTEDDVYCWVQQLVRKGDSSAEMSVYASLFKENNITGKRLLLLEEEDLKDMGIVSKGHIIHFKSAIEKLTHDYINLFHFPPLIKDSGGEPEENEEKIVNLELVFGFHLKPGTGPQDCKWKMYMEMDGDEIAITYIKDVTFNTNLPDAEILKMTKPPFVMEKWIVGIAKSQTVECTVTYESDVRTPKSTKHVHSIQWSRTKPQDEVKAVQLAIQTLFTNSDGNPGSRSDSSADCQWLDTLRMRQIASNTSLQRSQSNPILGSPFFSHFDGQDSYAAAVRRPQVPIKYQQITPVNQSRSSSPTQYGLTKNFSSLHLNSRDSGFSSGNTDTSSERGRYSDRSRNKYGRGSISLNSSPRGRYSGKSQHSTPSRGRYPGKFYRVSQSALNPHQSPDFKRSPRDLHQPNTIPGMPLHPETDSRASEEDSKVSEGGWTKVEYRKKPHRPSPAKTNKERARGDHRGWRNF

SMILES	residual activity [%]
Nc1nc(Nc2ccc(S(N)(=O)=O)cc2)nn1C(=S)Nc1c(F)cccc1F	49.1
Oc1ccc(-c2nc(-c3ccc(F)cc3)c(-c3ccncc3)[nH]2)cc1	98.8
CC(C)[C@H](CO)Nc1nc(Nc2cccc(Cl)c2)c2ncn(C(C)C)c2n1	108
COc1cc2ncnc(Nc3ccc(F)c(Cl)c3)c2cc1OCCCN1CCOCC1	96.2

Each molecule was assayed against PAK6 (human) (UniProt Q9NQU5) in the same assay as above. Conditions: compound 0.5 µM; ATP 10 µM.
Sequence of PAK6 (human) (Q9NQU5 whole entry, looked up): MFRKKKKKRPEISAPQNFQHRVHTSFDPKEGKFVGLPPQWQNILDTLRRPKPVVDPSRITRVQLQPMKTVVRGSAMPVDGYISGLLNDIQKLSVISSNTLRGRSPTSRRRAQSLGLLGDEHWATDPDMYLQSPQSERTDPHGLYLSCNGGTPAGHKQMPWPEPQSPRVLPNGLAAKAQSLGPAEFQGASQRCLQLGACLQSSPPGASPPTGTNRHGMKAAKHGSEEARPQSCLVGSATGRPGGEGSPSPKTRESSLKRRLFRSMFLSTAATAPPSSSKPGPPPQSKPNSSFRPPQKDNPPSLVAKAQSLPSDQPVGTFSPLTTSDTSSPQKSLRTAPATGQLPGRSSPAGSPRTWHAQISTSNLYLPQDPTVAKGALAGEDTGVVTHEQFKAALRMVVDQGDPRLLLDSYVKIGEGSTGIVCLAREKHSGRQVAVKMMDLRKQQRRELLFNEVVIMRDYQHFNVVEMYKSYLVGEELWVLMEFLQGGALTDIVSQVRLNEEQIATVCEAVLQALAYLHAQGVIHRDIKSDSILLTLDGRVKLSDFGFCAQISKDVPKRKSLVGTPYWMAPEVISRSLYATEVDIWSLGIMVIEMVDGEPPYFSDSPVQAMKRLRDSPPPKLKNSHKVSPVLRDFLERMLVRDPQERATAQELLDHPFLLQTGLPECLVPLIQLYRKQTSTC

SMILES	residual activity [%]
Nc1nc(Nc2ccc(S(N)(=O)=O)cc2)nn1C(=S)Nc1c(F)cccc1F	81.9
Oc1ccc(-c2nc(-c3ccc(F)cc3)c(-c3ccncc3)[nH]2)cc1	104
CC(C)[C@H](CO)Nc1nc(Nc2cccc(Cl)c2)c2ncn(C(C)C)c2n1	111
COc1cc2ncnc(Nc3ccc(F)c(Cl)c3)c2cc1OCCCN1CCOCC1	105

What follows are molecules tested against STK17A (human) (UniProt Q9UEE5) in the same assay as above. Conditions: compound 0.5 µM; ATP 10 µM.

SMILES	residual activity [%]
Nc1nc(Nc2ccc(S(N)(=O)=O)cc2)nn1C(=S)Nc1c(F)cccc1F	11.1
Oc1ccc(-c2nc(-c3ccc(F)cc3)c(-c3ccncc3)[nH]2)cc1	101
CC(C)[C@H](CO)Nc1nc(Nc2cccc(Cl)c2)c2ncn(C(C)C)c2n1	95
COc1cc2ncnc(Nc3ccc(F)c(Cl)c3)c2cc1OCCCN1CCOCC1	96

What follows are molecules tested against FLT3 (human) (UniProt P36888) in the same assay as above. Conditions: compound 0.5 µM; ATP 10 µM.

SMILES	residual activity [%]
Nc1nc(Nc2ccc(S(N)(=O)=O)cc2)nn1C(=S)Nc1c(F)cccc1F	1.07
Oc1ccc(-c2nc(-c3ccc(F)cc3)c(-c3ccncc3)[nH]2)cc1	95.1
CC(C)[C@H](CO)Nc1nc(Nc2cccc(Cl)c2)c2ncn(C(C)C)c2n1	16.4
COc1cc2ncnc(Nc3ccc(F)c(Cl)c3)c2cc1OCCCN1CCOCC1	56.5

These molecules were tested against ZAP70 (human) (UniProt P43403) in the same assay as above. Conditions: compound 0.5 µM; ATP 10 µM.
Sequence of ZAP70 (human) (P43403 whole entry, looked up): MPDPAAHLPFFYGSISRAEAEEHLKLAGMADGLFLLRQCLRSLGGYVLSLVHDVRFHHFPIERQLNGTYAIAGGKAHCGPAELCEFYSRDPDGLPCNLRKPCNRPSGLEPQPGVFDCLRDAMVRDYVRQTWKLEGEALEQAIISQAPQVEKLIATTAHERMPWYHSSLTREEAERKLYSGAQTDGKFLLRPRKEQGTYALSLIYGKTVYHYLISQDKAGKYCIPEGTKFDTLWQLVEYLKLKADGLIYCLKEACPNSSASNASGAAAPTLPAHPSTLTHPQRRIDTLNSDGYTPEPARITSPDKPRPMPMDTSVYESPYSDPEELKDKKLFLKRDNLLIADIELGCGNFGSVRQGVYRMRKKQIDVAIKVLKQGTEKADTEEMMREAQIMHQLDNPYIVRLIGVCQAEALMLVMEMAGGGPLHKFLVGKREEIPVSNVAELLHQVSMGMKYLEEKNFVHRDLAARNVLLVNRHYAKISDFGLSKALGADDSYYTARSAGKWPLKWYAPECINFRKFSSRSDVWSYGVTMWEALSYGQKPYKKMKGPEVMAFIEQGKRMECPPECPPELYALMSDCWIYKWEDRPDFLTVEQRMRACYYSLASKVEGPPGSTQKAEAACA

SMILES	residual activity [%]
Nc1nc(Nc2ccc(S(N)(=O)=O)cc2)nn1C(=S)Nc1c(F)cccc1F	86.9
Oc1ccc(-c2nc(-c3ccc(F)cc3)c(-c3ccncc3)[nH]2)cc1	100
CC(C)[C@H](CO)Nc1nc(Nc2cccc(Cl)c2)c2ncn(C(C)C)c2n1	99.7
COc1cc2ncnc(Nc3ccc(F)c(Cl)c3)c2cc1OCCCN1CCOCC1	96.5

These molecules were tested against NUAK1 (human) (UniProt O60285) in the same assay as above. Conditions: compound 0.5 µM; ATP 10 µM.
Sequence of NUAK1 (human) (O60285 whole entry, looked up): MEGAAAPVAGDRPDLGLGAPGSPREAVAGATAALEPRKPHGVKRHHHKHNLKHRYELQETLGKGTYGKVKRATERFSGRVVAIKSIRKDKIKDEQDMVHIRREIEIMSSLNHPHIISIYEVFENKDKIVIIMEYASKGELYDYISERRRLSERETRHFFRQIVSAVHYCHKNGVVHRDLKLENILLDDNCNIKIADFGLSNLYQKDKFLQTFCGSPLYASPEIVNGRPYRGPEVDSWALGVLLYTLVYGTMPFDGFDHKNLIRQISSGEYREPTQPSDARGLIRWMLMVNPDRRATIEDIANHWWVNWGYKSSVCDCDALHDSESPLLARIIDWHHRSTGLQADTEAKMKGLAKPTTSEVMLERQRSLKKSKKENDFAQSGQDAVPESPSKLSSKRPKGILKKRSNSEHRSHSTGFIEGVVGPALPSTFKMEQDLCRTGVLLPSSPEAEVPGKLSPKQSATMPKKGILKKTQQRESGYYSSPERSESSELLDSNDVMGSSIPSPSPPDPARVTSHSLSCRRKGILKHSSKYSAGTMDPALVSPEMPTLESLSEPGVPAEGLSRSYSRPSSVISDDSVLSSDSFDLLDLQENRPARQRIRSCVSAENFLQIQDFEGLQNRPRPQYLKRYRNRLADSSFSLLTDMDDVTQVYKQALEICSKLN

SMILES	residual activity [%]
Nc1nc(Nc2ccc(S(N)(=O)=O)cc2)nn1C(=S)Nc1c(F)cccc1F	2.13
Oc1ccc(-c2nc(-c3ccc(F)cc3)c(-c3ccncc3)[nH]2)cc1	97.3
CC(C)[C@H](CO)Nc1nc(Nc2cccc(Cl)c2)c2ncn(C(C)C)c2n1	71.1
COc1cc2ncnc(Nc3ccc(F)c(Cl)c3)c2cc1OCCCN1CCOCC1	99.1

These molecules were tested against CSNK1E (human) (UniProt P49674) in the same assay as above. Conditions: compound 0.5 µM; ATP 10 µM.

SMILES	residual activity [%]
Nc1nc(Nc2ccc(S(N)(=O)=O)cc2)nn1C(=S)Nc1c(F)cccc1F	91.8
Oc1ccc(-c2nc(-c3ccc(F)cc3)c(-c3ccncc3)[nH]2)cc1	32.7
CC(C)[C@H](CO)Nc1nc(Nc2cccc(Cl)c2)c2ncn(C(C)C)c2n1	87.3
COc1cc2ncnc(Nc3ccc(F)c(Cl)c3)c2cc1OCCCN1CCOCC1	106

What follows are molecules tested against PRKD1 (human) (UniProt Q15139) in the same assay as above. Conditions: compound 0.5 µM; ATP 10 µM.
Sequence of PRKD1 (human) (Q15139 whole entry, looked up): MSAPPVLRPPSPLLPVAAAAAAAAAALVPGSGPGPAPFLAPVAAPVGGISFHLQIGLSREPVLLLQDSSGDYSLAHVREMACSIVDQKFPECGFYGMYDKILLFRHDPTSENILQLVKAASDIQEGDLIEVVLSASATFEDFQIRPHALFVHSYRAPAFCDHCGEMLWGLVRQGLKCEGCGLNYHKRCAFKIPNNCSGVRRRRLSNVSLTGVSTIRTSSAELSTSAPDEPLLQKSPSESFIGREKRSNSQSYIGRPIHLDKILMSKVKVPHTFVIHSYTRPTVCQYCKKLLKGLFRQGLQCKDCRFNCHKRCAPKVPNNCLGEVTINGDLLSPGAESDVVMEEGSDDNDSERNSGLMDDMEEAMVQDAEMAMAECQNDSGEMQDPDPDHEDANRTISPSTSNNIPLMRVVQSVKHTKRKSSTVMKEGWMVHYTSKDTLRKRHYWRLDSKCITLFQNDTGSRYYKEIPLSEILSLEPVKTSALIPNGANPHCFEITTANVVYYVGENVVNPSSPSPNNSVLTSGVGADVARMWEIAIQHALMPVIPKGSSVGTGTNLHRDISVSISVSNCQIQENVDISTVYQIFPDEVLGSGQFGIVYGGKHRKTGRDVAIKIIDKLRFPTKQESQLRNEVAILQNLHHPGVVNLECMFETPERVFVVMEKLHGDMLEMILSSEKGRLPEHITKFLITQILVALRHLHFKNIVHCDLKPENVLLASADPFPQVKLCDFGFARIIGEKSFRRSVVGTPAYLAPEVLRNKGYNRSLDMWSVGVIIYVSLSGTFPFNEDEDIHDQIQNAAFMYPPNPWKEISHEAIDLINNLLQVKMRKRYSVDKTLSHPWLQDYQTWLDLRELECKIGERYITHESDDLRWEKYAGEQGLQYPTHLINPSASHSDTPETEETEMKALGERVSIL

SMILES	residual activity [%]
Nc1nc(Nc2ccc(S(N)(=O)=O)cc2)nn1C(=S)Nc1c(F)cccc1F	7.79
Oc1ccc(-c2nc(-c3ccc(F)cc3)c(-c3ccncc3)[nH]2)cc1	90.7
CC(C)[C@H](CO)Nc1nc(Nc2cccc(Cl)c2)c2ncn(C(C)C)c2n1	96.9
COc1cc2ncnc(Nc3ccc(F)c(Cl)c3)c2cc1OCCCN1CCOCC1	85.4

The molecules below were run against MAP3K9 (human) (UniProt P80192) in the same assay as above. Conditions: compound 0.5 µM; ATP 10 µM.

SMILES	residual activity [%]
Nc1nc(Nc2ccc(S(N)(=O)=O)cc2)nn1C(=S)Nc1c(F)cccc1F	-0.373
Oc1ccc(-c2nc(-c3ccc(F)cc3)c(-c3ccncc3)[nH]2)cc1	53.1
CC(C)[C@H](CO)Nc1nc(Nc2cccc(Cl)c2)c2ncn(C(C)C)c2n1	37.8
COc1cc2ncnc(Nc3ccc(F)c(Cl)c3)c2cc1OCCCN1CCOCC1	110

Each molecule was assayed against MST4 (human) (UniProt Q9P289) in the same assay as above. Conditions: compound 0.5 µM; ATP 10 µM.

SMILES	residual activity [%]
Nc1nc(Nc2ccc(S(N)(=O)=O)cc2)nn1C(=S)Nc1c(F)cccc1F	4.54
Oc1ccc(-c2nc(-c3ccc(F)cc3)c(-c3ccncc3)[nH]2)cc1	101
CC(C)[C@H](CO)Nc1nc(Nc2cccc(Cl)c2)c2ncn(C(C)C)c2n1	100
COc1cc2ncnc(Nc3ccc(F)c(Cl)c3)c2cc1OCCCN1CCOCC1	106

The molecules below were run against LIMK1 (human) (UniProt P53667) in the same assay as above. Conditions: compound 0.5 µM; ATP 10 µM.

SMILES	residual activity [%]
Nc1nc(Nc2ccc(S(N)(=O)=O)cc2)nn1C(=S)Nc1c(F)cccc1F	-0.611
Oc1ccc(-c2nc(-c3ccc(F)cc3)c(-c3ccncc3)[nH]2)cc1	91.4
CC(C)[C@H](CO)Nc1nc(Nc2cccc(Cl)c2)c2ncn(C(C)C)c2n1	86.3
COc1cc2ncnc(Nc3ccc(F)c(Cl)c3)c2cc1OCCCN1CCOCC1	90

These molecules were tested against SRPK3 (human) (UniProt Q9UPE1) in the same assay as above. Conditions: compound 0.5 µM; ATP 10 µM.

SMILES	residual activity [%]
Nc1nc(Nc2ccc(S(N)(=O)=O)cc2)nn1C(=S)Nc1c(F)cccc1F	48.7
Oc1ccc(-c2nc(-c3ccc(F)cc3)c(-c3ccncc3)[nH]2)cc1	95.9
CC(C)[C@H](CO)Nc1nc(Nc2cccc(Cl)c2)c2ncn(C(C)C)c2n1	70.4
COc1cc2ncnc(Nc3ccc(F)c(Cl)c3)c2cc1OCCCN1CCOCC1	103

What follows are molecules tested against STK10 (human) (UniProt O94804) in the same assay as above. Conditions: compound 0.5 µM; ATP 10 µM.

SMILES	residual activity [%]
Nc1nc(Nc2ccc(S(N)(=O)=O)cc2)nn1C(=S)Nc1c(F)cccc1F	3.96
Oc1ccc(-c2nc(-c3ccc(F)cc3)c(-c3ccncc3)[nH]2)cc1	85
CC(C)[C@H](CO)Nc1nc(Nc2cccc(Cl)c2)c2ncn(C(C)C)c2n1	81.8
COc1cc2ncnc(Nc3ccc(F)c(Cl)c3)c2cc1OCCCN1CCOCC1	38.6

Each molecule was assayed against FER (human) (UniProt P16591) in the same assay as above. Conditions: compound 0.5 µM; ATP 10 µM.

SMILES	residual activity [%]
Nc1nc(Nc2ccc(S(N)(=O)=O)cc2)nn1C(=S)Nc1c(F)cccc1F	21.7
Oc1ccc(-c2nc(-c3ccc(F)cc3)c(-c3ccncc3)[nH]2)cc1	94.5
CC(C)[C@H](CO)Nc1nc(Nc2cccc(Cl)c2)c2ncn(C(C)C)c2n1	62.9
COc1cc2ncnc(Nc3ccc(F)c(Cl)c3)c2cc1OCCCN1CCOCC1	94.1

These molecules were tested against STK11 (human) (UniProt Q15831) in the same assay as above. Conditions: compound 0.5 µM; ATP 10 µM.

SMILES	residual activity [%]
Nc1nc(Nc2ccc(S(N)(=O)=O)cc2)nn1C(=S)Nc1c(F)cccc1F	23.5
Oc1ccc(-c2nc(-c3ccc(F)cc3)c(-c3ccncc3)[nH]2)cc1	93.1
CC(C)[C@H](CO)Nc1nc(Nc2cccc(Cl)c2)c2ncn(C(C)C)c2n1	84.4
COc1cc2ncnc(Nc3ccc(F)c(Cl)c3)c2cc1OCCCN1CCOCC1	106

These molecules were tested against GSK3B (human) (UniProt P49841) in the same assay as above. Conditions: compound 0.5 µM; ATP 10 µM.

SMILES	residual activity [%]
Nc1nc(Nc2ccc(S(N)(=O)=O)cc2)nn1C(=S)Nc1c(F)cccc1F	9.03
Oc1ccc(-c2nc(-c3ccc(F)cc3)c(-c3ccncc3)[nH]2)cc1	76.6
CC(C)[C@H](CO)Nc1nc(Nc2cccc(Cl)c2)c2ncn(C(C)C)c2n1	103
COc1cc2ncnc(Nc3ccc(F)c(Cl)c3)c2cc1OCCCN1CCOCC1	100

These molecules were tested against EPHA7 (human) (UniProt Q15375) in the same assay as above. Conditions: compound 0.5 µM; ATP 10 µM.

SMILES	residual activity [%]
Nc1nc(Nc2ccc(S(N)(=O)=O)cc2)nn1C(=S)Nc1c(F)cccc1F	14.2
Oc1ccc(-c2nc(-c3ccc(F)cc3)c(-c3ccncc3)[nH]2)cc1	86.1
CC(C)[C@H](CO)Nc1nc(Nc2cccc(Cl)c2)c2ncn(C(C)C)c2n1	86.8
COc1cc2ncnc(Nc3ccc(F)c(Cl)c3)c2cc1OCCCN1CCOCC1	74.3

Each molecule was assayed against PRKCI (human) (UniProt P41743) in the same assay as above. Conditions: compound 0.5 µM; ATP 10 µM.

SMILES	residual activity [%]
Nc1nc(Nc2ccc(S(N)(=O)=O)cc2)nn1C(=S)Nc1c(F)cccc1F	78.9
Oc1ccc(-c2nc(-c3ccc(F)cc3)c(-c3ccncc3)[nH]2)cc1	93.4
CC(C)[C@H](CO)Nc1nc(Nc2cccc(Cl)c2)c2ncn(C(C)C)c2n1	96.6
COc1cc2ncnc(Nc3ccc(F)c(Cl)c3)c2cc1OCCCN1CCOCC1	96.9

These molecules were tested against PKN1 (human) (UniProt Q16512) in the same assay as above. Conditions: compound 0.5 µM; ATP 10 µM.

SMILES	residual activity [%]
Nc1nc(Nc2ccc(S(N)(=O)=O)cc2)nn1C(=S)Nc1c(F)cccc1F	9.7
Oc1ccc(-c2nc(-c3ccc(F)cc3)c(-c3ccncc3)[nH]2)cc1	78.9
CC(C)[C@H](CO)Nc1nc(Nc2cccc(Cl)c2)c2ncn(C(C)C)c2n1	100
COc1cc2ncnc(Nc3ccc(F)c(Cl)c3)c2cc1OCCCN1CCOCC1	105

Each molecule was assayed against CDK1 CCNB1 (human) (UniProt P06493+P14635) in the same assay as above. Conditions: compound 0.5 µM; ATP 10 µM.
Sequence of CDK1 CCNB1 (human) (P06493 whole entry, looked up): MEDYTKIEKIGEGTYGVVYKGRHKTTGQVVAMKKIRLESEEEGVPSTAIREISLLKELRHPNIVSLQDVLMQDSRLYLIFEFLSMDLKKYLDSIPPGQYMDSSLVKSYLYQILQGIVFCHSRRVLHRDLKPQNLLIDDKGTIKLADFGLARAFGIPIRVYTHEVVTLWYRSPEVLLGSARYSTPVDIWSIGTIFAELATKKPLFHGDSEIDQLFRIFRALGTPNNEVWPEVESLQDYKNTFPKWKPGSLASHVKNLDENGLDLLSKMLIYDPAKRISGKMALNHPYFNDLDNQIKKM
Sequence of CDK1 CCNB1 (human) (P14635 whole entry, looked up): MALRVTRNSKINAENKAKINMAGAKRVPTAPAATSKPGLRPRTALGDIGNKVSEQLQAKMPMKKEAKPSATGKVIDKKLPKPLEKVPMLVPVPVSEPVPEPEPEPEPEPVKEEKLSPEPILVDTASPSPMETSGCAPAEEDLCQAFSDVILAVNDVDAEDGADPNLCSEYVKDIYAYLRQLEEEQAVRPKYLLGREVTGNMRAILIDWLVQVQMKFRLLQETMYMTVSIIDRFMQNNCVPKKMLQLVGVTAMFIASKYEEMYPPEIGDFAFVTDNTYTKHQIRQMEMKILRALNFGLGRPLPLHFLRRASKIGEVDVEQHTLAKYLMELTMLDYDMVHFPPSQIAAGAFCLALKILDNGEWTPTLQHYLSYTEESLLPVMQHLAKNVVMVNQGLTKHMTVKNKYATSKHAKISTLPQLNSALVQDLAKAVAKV

SMILES	residual activity [%]
Nc1nc(Nc2ccc(S(N)(=O)=O)cc2)nn1C(=S)Nc1c(F)cccc1F	-1.78
Oc1ccc(-c2nc(-c3ccc(F)cc3)c(-c3ccncc3)[nH]2)cc1	99
CC(C)[C@H](CO)Nc1nc(Nc2cccc(Cl)c2)c2ncn(C(C)C)c2n1	34.9
COc1cc2ncnc(Nc3ccc(F)c(Cl)c3)c2cc1OCCCN1CCOCC1	99.1
